Data taken from the kinase profiling compilation of Christmann-Franck et al. (2016).

How the values were obtained:
Assay in all cases: KINOMEscan competition binding
Conditions in all cases: compound 10.0 µM
ABL2 (human) = ABL2 (human) (UniProt P42684)
ADCK4 (human) = ADCK4 (human) (UniProt Q96D53)
BMPR1A (human) = BMPR1A (human) (UniProt P36894)
CDC42BPB (human) = CDC42BPB (human) (UniProt Q9Y5S2)
CDK11B (human) = CDK11B (human) (UniProt P21127)
CDK16 (human) = CDK16 (human) (UniProt Q00536)
CDK17 (human) = CDK17 (human) (UniProt Q00537)
CDK7 (human) = CDK7 (human) (UniProt P50613)
CDK9 (human) = CDK9 (human) (UniProt P50750)
CLK4 (human) = CLK4 (human) (UniProt Q9HAZ1)
CPK1 (P.falciparum) = tested on: CPK1 (P.falciparum)
CSK (human) = CSK (human) (UniProt P41240)
DMPK (human) = DMPK (human) (UniProt Q09013)
[1] = tested on: EGFR (human), P00533 [752-759 del]
EIF2AK1 (human) = EIF2AK1 (human) (UniProt Q9BQI3)
EPHA7 (human) = EPHA7 (human) (UniProt Q15375)
ERBB2 (human) = ERBB2 (human) (UniProt P04626)
Chain of ERBB2 (human) (P04626 whole entry, looked up): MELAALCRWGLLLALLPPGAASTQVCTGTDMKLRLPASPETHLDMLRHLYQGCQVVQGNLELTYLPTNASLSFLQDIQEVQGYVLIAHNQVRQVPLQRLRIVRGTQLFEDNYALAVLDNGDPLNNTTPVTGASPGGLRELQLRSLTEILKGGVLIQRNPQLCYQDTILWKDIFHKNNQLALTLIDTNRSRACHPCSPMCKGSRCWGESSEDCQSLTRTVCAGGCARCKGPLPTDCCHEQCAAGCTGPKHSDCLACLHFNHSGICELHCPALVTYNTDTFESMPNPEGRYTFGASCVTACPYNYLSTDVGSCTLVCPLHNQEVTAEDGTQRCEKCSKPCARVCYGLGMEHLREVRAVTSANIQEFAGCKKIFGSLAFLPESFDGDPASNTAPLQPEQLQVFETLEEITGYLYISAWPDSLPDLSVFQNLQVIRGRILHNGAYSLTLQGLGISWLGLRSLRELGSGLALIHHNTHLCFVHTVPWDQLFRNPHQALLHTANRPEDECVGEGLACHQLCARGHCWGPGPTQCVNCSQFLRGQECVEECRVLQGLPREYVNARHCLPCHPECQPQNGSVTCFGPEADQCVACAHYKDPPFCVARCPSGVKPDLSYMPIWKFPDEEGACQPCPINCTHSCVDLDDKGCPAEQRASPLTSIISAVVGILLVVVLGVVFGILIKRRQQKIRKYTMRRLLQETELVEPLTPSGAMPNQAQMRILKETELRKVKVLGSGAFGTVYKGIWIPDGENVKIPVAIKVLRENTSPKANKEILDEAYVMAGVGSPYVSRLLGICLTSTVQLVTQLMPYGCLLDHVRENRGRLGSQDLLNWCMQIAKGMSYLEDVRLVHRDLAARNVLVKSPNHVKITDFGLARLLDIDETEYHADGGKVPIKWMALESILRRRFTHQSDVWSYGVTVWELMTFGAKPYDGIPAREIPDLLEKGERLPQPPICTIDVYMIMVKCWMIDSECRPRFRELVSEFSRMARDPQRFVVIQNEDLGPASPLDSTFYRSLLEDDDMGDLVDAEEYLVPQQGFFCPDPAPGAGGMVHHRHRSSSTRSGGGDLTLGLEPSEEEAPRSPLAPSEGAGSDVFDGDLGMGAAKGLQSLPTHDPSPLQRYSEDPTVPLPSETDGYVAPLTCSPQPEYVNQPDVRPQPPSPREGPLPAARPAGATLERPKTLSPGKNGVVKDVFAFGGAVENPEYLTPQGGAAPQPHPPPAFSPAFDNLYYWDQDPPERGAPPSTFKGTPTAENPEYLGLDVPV

ERN1 (human) = ERN1 (human) (UniProt O75460)
HIPK1 (human) = HIPK1 (human) (UniProt Q86Z02)
HIPK2 (human) = HIPK2 (human) (UniProt Q9H2X6)
IKBKE (human) = IKBKE (human) (UniProt Q14164)
LCK (human) = LCK (human) (UniProt P06239)
LRRK2 (human) = LRRK2 (human) (UniProt Q5S007)
MKNK1 (human) = MKNK1 (human) (UniProt Q9BUB5)
Chain of MKNK1 (human) (Q9BUB5 whole entry, looked up): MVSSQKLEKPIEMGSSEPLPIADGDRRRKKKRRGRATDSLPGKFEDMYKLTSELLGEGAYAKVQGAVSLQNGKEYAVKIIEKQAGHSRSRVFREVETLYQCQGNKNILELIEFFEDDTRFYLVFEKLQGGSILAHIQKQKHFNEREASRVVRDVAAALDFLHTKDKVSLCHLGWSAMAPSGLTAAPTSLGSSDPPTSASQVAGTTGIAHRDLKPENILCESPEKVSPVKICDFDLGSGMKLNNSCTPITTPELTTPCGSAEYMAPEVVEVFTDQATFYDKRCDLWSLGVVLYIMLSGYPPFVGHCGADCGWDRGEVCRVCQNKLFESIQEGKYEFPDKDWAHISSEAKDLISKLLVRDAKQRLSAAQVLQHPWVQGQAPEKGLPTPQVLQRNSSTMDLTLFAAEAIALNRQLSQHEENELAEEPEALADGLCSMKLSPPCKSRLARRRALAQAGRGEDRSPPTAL

MYO3A (human) = MYO3A (human) (UniProt Q8NEV4)
NTRK1 (human) = NTRK1 (human) (UniProt P04629)
PIK3CD (human) = PIK3CD (human) (UniProt O00329)
PIK3CG (human) = PIK3CG (human) (UniProt P48736)
PRKAA1 (human) = PRKAA1 (human) (UniProt Q13131)
PRKCD (human) = PRKCD (human) (UniProt Q05655)
RPS6KA5 KD1 (human) = RPS6KA5 KD1 (human) (UniProt O75582)
RPS6KA5 KD2 (human) = RPS6KA5 KD2 (human) (UniProt O75582)
SIK2 (human) = SIK2 (human) (UniProt Q9H0K1)
SRPK1 (human) = SRPK1 (human) (UniProt Q96SB4)
STK10 (human) = STK10 (human) (UniProt O94804)
Chain of STK10 (human) (O94804 whole entry, looked up): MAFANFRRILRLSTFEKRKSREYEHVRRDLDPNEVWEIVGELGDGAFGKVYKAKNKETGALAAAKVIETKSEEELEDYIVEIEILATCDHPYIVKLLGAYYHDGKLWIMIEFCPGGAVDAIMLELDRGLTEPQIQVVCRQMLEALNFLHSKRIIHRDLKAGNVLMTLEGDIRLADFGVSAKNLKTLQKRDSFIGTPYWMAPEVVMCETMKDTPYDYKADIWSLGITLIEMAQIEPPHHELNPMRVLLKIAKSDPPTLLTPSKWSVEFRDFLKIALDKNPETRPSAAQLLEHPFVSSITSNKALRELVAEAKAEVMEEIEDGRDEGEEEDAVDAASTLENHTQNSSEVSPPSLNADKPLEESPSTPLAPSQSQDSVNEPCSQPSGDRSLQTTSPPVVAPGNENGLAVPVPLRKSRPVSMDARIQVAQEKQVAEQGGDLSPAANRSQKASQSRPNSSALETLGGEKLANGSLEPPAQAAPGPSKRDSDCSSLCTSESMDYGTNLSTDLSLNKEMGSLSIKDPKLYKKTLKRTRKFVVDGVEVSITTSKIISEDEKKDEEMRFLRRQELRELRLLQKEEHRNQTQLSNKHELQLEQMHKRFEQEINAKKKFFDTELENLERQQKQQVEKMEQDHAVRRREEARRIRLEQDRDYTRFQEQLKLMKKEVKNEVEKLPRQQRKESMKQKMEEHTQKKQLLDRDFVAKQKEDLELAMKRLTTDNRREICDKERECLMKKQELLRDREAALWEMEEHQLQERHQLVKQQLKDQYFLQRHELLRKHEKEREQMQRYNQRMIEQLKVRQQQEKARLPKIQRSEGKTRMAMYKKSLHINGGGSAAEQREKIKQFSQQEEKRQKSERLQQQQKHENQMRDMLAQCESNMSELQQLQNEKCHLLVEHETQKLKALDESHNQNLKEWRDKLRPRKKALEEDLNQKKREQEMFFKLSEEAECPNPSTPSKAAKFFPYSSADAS

STK17B (human) = STK17B (human) (UniProt O94768)
STK39 (human) = STK39 (human) (UniProt Q9UEW8)
YSK4 (human) = YSK4 (human) (UniProt Q56UN5)
FER (human) = FER (human) (UniProt P16591)

Chain of CDC42BPB (human) (Q9Y5S2 whole entry, looked up): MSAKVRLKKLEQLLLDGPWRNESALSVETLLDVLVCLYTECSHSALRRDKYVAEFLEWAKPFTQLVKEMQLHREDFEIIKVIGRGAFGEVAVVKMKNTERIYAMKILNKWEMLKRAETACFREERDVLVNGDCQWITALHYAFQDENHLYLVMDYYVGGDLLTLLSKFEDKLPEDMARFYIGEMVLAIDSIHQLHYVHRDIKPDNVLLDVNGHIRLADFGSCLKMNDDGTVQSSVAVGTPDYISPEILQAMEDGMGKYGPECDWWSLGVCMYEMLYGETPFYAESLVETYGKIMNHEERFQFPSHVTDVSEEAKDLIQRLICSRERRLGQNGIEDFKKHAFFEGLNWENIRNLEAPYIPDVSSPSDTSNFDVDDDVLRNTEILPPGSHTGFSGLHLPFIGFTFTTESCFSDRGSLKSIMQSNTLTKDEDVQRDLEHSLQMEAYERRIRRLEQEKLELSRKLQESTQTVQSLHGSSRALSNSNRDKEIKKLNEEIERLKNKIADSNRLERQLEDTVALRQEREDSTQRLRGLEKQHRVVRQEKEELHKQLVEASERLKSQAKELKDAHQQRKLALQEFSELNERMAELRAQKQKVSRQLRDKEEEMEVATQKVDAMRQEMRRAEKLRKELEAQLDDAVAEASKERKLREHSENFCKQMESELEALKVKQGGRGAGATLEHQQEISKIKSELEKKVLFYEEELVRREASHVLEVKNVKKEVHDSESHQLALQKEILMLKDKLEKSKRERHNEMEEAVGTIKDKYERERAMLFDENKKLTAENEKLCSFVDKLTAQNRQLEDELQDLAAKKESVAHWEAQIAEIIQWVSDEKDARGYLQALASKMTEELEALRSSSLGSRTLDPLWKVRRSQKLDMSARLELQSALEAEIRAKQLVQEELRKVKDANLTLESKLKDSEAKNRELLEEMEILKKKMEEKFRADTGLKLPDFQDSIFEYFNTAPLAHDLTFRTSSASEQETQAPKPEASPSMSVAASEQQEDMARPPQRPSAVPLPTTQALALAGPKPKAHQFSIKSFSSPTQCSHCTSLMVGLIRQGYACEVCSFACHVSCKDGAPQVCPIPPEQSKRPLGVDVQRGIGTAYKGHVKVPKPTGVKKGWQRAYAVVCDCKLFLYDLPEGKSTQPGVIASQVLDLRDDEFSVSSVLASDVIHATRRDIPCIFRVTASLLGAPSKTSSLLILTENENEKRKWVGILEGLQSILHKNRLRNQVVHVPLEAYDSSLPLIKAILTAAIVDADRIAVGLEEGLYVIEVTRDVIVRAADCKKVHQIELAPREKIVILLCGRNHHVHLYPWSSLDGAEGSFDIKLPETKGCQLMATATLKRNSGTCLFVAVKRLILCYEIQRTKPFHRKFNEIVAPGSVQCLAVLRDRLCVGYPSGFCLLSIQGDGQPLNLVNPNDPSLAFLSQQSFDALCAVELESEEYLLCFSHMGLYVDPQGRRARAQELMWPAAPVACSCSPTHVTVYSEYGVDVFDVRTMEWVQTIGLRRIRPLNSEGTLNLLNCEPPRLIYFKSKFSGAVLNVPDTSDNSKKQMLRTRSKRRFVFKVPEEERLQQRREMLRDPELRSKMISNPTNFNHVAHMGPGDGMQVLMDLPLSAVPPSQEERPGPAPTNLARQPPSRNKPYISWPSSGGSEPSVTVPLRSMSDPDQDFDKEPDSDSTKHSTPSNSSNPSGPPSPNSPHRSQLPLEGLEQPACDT
Chain of BMPR1A (human) (P36894 whole entry, looked up): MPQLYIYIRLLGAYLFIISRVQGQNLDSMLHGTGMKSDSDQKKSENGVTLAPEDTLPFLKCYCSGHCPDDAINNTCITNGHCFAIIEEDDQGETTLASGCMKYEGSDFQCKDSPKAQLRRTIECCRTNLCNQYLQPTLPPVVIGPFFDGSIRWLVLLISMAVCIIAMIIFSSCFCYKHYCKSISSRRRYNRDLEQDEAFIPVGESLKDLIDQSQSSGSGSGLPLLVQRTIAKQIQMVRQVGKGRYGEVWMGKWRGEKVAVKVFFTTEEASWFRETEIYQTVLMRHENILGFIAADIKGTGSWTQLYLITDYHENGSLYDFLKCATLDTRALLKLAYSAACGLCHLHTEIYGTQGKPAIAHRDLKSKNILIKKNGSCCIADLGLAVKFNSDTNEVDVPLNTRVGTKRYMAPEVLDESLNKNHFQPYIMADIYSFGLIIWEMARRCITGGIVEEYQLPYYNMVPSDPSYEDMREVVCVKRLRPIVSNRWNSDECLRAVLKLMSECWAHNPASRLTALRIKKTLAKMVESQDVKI

SMILES	kinase still bound, per cent of control (ABL2 (human)) [%]	kinase still bound, per cent of control (ADCK4 (human)) [%]	kinase still bound, per cent of control (BMPR1A (human)) [%]	kinase still bound, per cent of control (CDC42BPB (human)) [%]	kinase still bound, per cent of control (CDK11B (human)) [%]	kinase still bound, per cent of control (CDK16 (human)) [%]	kinase still bound, per cent of control (CDK17 (human)) [%]	kinase still bound, per cent of control (CDK7 (human)) [%]	kinase still bound, per cent of control (CDK9 (human)) [%]	kinase still bound, per cent of control (CLK4 (human)) [%]	kinase still bound, per cent of control (CPK1 (P.falciparum)) [%]	kinase still bound, per cent of control (CSK (human)) [%]	kinase still bound, per cent of control (DMPK (human)) [%]	kinase still bound, per cent of control [1] [%]	kinase still bound, per cent of control (EIF2AK1 (human)) [%]	kinase still bound, per cent of control (EPHA7 (human)) [%]	kinase still bound, per cent of control (ERBB2 (human)) [%]	kinase still bound, per cent of control (ERN1 (human)) [%]	kinase still bound, per cent of control (HIPK1 (human)) [%]	kinase still bound, per cent of control (HIPK2 (human)) [%]	other results
NC(=O)Nc1cc(-c2cccc(F)c2)sc1C(=O)N[C@@H]1CCCNC1	0.2	55	0.4	74	100	79	84	4.9	88	2.4	0.1	0.05	12	2.4	88	0.1	0	25	7.2	13	kinase still bound, per cent of control (IKBKE (human)): 3.6%; kinase still bound, per cent of control (LCK (human)): 0%; kinase still bound, per cent of control (LRRK2 (human)): 4%; kinase still bound, per cent of control (MKNK1 (human)): 6%; kinase still bound, per cent of control (MYO3A (human)): 4.2%; kinase still bound, per cent of control (NTRK1 (human)): 0%; kinase still bound, per cent of control (PIK3CD (human)): 100%; kinase still bound, per cent of control (PIK3CG (human)): 100%; kinase still bound, per cent of control (PRKAA1 (human)): 0.2%; kinase still bound, per cent of control (PRKCD (human)): 0.65%; kinase still bound, per cent of control (RPS6KA5 KD1 (human)): 49%; kinase still bound, per cent of control (RPS6KA5 KD2 (human)): 9%; kinase still bound, per cent of control (SIK2 (human)): 2.6%; kinase still bound, per cent of control (SRPK1 (human)): 1.4%; kinase still bound, per cent of control (STK10 (human)): 0%; kinase still bound, per cent of control (STK17B (human)): 2%; kinase still bound, per cent of control (STK39 (human)): 4.4%; kinase still bound, per cent of control (YSK4 (human)): 0%
N#CCNC(=O)c1ccc(-c2ccnc(Nc3ccc(N4CCOCC4)cc3)n2)cc1	57	33	3.6	42	66	21	55	3.8	55	15	100	100	37	72	100	96	61	100	8.9	15	kinase still bound, per cent of control (FER (human)): 100%; kinase still bound, per cent of control (IKBKE (human)): 5.2%; kinase still bound, per cent of control (LCK (human)): 90%; kinase still bound, per cent of control (LRRK2 (human)): 48%; kinase still bound, per cent of control (MKNK1 (human)): 84%; kinase still bound, per cent of control (MYO3A (human)): 100%; kinase still bound, per cent of control (PIK3CD (human)): 45%; kinase still bound, per cent of control (PIK3CG (human)): 2.4%; kinase still bound, per cent of control (PRKAA1 (human)): 42%; kinase still bound, per cent of control (PRKCD (human)): 54%; kinase still bound, per cent of control (RPS6KA5 KD1 (human)): 100%; kinase still bound, per cent of control (RPS6KA5 KD2 (human)): 9.3%; kinase still bound, per cent of control (SIK2 (human)): 14%; kinase still bound, per cent of control (SRPK1 (human)): 1.6%; kinase still bound, per cent of control (STK10 (human)): 100%; kinase still bound, per cent of control (STK17B (human)): 2.6%; kinase still bound, per cent of control (STK39 (human)): 47%; kinase still bound, per cent of control (YSK4 (human)): 1.7%
